Measurements as given in patent US5994055A, “HIV trans-activator Tat binding to CDK7 and activation of CTD phosphorylation” (priority 1997, dated 1999).
Where no end group is shown, it is not given here. [ ]: non-standard residue; d: D form.

Assays:
[1] = biological target: T1, recombinant CAK (CDK7, cyclin H, MAT1) (Homo sapiens, UniProt P50613); test: Kinase reaction: phosphorylation of the CTD by recombinant CAK; assay type: biochemical
T1 construct: made in house; host or cells: Sf9 insect cells (baculovirus co-infection)
Method: Recombinant baculoviruses encoding human CDK7 (Fisher et al., Cell 78:713-724 (1994)), MAT1 (Fisher et al., Cell 83:47-57 (1995)), and an N-terminally 6-histidine tagged version of cyclin H (Kim et al., Cell 77:599-608 (1994)) were constructed as described. 4×10^9 Sf9 insect cells were co-infected with all three baculoviruses (multiplicity of infection for each virus: 5 pfu/cell), incubated 2 days at 28° C., and harvested by centrifugation. Cells were resuspended in 120 ml buffer A (20 mM Na phosphate, 25 mM NaCl, 1 mM PMSF, 1 Ag/ml leupeptin, 2 μg/ml aprotinin, 1 mM DTT (pH 7.4). NaCl concentration was raised to 300 mM and the lysate was clarified by centrifugation and loaded over tandem 5-ml Pharmacia HiTrap Chelating columns loaded with CoCl2 and preequilibrated with buffer B (300 mM NaCl, 20 mM Na phosphate, 10% glycerol (pH 7.2)). The column was washed with buffer B+1 mM DTT and eluted with a linear gradient of 0-200 mM imidazole in buffer B+1 mM DTT. Fractions containing the CAK trimer were pooled, diluted 4-fold in buffer C (20 mM Hepes-NaOH, 1 mM EDTA, 10% glycerol, 1 mM DTT (pH 7.4)), and loaded on a 5 ml Pharmacia HiTrap Q column pre-equilibrated with buffer C. The column was washed with buffer C and eluted with a linear gradient of 25-1000 mM NaCl in buffer C. […]

[2] = system: Tat trans-activation of the HIV LTR; test: In vitro run-off transcription from the wild-type HIV LTR; assay type: biochemical; settings: increasing concentrations / concentration not stated
Method: The ability of molecules to inhibit Tat trans-activation can be assessed using a variety of in vitro and in vivo assays. For example, Tat trans-activation can be assessed using in vitro run-off transcription reactions with transcription extracts (see, e.g., Current Protocols in Molecular Biology (Ausubel et al., eds., 1997)). In such an assay, nuclear transcription extracts are prepared from cultured mammalian cells according to standard procedures (see, e.g., Dignam et al., Nuc. Acids. Res. 11: 1475-1489 (1983)). Recombinant Tat protein is isolated according to standard procedures and added to the nuclear transcription extract along with the other components of the transcription reaction such as nucleotides (see, e.g., Cujec et al., supra; Example V). The reaction is also supplied with HIV promoter DNA sequences operably linked to a structural gene.
Run-off transcription reactions from the wild-type HIV LTR and AdMLT promoters linearized with NcoI and HindIII respectively, were carried out as described (Okamoto et al., Proc. Natl. Acad. Sci. USA 93:11575-11579 (1996); Cujec et al., Mol. Cell. Biol. 17:1817-1823 (1997)). […]

[3] = system: DHFR promoter; test: In vitro transcription from the DHFR promoter (G-less cassette); assay type: biochemical; settings: concentration not given
Method: Run-off transcription reactions from the wild-type HIV LTR and AdMLT promoters linearized with NcoI and HindIII respectively, were carried out as described (Okamoto et al., Proc. Natl. Acad. Sci. USA 93:11575-11579 (1996); Cujec et al., Mol. Cell. Biol. 17:1817-1823 (1997)). Transcription reactions containing the DHFR promoter (500 ng) fused to a G-less cassette (linearized at Nco I) were supplemented with 3 mM (NH4)2 SO4, 2% PEG 8000, 50 units of T1 RNase (Boehringer-Mannheim), 500 U of RNase inhibitor (Boehringer-Mannheim) and contained 5 μM instead of 40 μM of unlabeled UTP. Phosphocreatine, poly (d)I-(d)C, and poly(rI-rC) were omitted from the reactions.

[4] = system: Tat trans-activation of the HIV LTR in COS-7 cells; test: Peptide electroporation into COS-7 cells with pHIVΔKBCAT reporter, RNase protection assay; assay type: cell-based

T1 sequence (P51946 whole entry): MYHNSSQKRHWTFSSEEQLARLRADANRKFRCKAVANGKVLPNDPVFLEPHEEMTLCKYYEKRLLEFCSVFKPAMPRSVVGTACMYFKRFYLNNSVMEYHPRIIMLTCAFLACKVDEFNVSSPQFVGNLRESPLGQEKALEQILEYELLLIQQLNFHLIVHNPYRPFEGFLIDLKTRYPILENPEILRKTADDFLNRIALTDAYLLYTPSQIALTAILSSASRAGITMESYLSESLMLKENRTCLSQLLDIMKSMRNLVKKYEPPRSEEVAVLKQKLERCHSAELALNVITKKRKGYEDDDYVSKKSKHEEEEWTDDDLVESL
T1 sequence (P50613 2-346): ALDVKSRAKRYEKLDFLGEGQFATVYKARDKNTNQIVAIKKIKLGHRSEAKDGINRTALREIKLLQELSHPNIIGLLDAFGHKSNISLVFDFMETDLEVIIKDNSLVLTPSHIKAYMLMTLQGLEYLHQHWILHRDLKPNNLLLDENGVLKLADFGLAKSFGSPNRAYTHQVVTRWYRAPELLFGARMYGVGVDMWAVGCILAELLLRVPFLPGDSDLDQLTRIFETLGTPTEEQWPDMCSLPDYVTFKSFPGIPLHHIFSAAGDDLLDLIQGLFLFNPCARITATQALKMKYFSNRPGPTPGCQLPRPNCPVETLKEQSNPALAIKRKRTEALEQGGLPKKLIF
T1 sequence (P51949 whole entry, further chain): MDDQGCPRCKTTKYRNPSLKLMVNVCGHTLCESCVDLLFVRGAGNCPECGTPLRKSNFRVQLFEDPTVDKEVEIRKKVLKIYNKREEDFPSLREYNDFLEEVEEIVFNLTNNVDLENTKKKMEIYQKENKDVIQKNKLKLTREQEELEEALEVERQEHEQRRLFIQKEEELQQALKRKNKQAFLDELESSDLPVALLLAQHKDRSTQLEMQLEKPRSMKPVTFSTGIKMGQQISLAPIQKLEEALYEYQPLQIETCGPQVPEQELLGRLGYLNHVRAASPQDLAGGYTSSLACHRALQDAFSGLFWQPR

Row | Substance | effect on the kinase activity of CAK ([1]; concentration not given) | Tat trans-activation [2] | transcription from the DHFR promoter [3] | transcription in the absence of Tat ([4]; increasing concentrations, data not presented) | ratio of long to short transcripts ([4]; regardless of peptide concentration) | IC50 [1]
1 | HARTVGVWYRAEYARFVTPaVV (HARTVGVWYRAEYARFVTP[dA]VV) [rC2p, control] | no effect | did not affect | no effect | no effect | remained the same | 
2 | ARAFGVPVRTYAHEVVTLWYRA [mC2p] |  |  |  |  |  | 1300 nM
